According to article PMC7484799, “Evolution of isoprenyl diphosphate synthase-like terpene synthases in fungi” (Scientific Reports, 2020):

How the values were obtained:
MlpILTPS1 = molecular target: T1, MlpILTPS1 (Melampsora laricis-populina, UniProt A0A858E4Y8); assay: in vitro terpene synthase assay, SPME GC-MS; assay type: biochemical; conditions: room temperature, 60 min
T1 construct: gene ILTPS1; full-length cDNA from infected Populus nigra leaves in pET-32a, N-terminal His-tag, E. coli BL21(DE3) pLysS
T1 sequence (A0A858E4Y8 1-324): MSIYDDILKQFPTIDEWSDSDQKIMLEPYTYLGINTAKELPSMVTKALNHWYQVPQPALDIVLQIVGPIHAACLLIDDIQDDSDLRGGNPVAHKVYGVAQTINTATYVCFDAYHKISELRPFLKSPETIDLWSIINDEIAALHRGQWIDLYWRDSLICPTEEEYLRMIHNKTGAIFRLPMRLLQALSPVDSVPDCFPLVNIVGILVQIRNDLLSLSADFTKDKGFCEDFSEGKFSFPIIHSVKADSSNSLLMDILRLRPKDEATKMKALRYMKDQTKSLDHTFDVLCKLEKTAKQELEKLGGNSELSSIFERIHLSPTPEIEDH

MliILTPS1 = molecular target: T2, MliILTPS1 (Melampsora lini, UniProt A0A858E7J4); assay: in vitro terpene synthase assay, SPME GC-MS; assay type: biochemical; conditions: room temperature, 60 min
T2 construct: gene ILTPS1; full-length synthesized cDNA in pET-32a, N-terminal His-tag, E. coli BL21(DE3) pLysS
T2 sequence (A0A858E7J4 1-329): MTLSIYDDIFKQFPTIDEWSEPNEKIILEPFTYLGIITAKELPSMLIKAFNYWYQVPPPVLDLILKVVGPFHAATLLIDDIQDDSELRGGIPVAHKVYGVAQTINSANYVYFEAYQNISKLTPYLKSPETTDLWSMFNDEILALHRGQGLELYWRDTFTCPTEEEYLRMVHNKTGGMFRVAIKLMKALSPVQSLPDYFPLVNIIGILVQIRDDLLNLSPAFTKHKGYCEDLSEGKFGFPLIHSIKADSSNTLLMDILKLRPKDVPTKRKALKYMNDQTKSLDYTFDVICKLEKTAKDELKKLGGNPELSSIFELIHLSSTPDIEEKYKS

MlpILTPS2 = molecular target: T3, MlpILTPS2 (Melampsora laricis-populina, UniProt A0A858E4Y6); assay: in vitro terpene synthase assay, SPME GC-MS; assay type: biochemical; conditions: room temperature, 60 min
T3 construct: gene ILTPS2; full-length cDNA from infected Populus nigra leaves in pET-32a, N-terminal His-tag, E. coli BL21(DE3) pLysS
T3 sequence (A0A858E4Y6 1-316): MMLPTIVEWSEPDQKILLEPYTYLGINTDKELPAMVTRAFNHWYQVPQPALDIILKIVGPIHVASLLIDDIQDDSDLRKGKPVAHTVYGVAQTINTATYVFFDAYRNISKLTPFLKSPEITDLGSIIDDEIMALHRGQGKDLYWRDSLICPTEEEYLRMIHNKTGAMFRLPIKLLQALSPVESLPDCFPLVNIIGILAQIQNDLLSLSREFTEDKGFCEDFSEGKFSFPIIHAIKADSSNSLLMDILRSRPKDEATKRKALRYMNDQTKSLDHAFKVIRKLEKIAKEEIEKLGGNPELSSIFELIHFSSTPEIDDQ

MlpGGDPS = molecular target: T4, MlpGGDPS (Melampsora laricis-populina, UniProt A0A858E7G0); assay: radiochemical IDS assay, TLC; assay type: biochemical; conditions: MOPS pH 7.0, 10 mM MgCl2, 30 °C; co-substrate [1-14C]-IDP; product GGDP
T4 construct: gene GGDPS; full-length cDNA from infected Populus nigra leaves in pET-32a, N-terminal His-tag, E. coli BL21(DE3) pLysS
T4 sequence (A0A858E7G0 1-364): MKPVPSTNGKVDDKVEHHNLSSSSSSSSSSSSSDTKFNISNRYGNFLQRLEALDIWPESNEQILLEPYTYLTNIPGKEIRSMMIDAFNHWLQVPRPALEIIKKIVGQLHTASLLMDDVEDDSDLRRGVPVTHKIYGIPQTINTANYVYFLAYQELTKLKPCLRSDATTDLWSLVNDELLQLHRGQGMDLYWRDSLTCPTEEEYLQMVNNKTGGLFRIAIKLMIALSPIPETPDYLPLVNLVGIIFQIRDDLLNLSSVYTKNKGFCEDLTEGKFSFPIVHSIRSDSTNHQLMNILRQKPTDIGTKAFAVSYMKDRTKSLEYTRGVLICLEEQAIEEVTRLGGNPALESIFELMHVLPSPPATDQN

MliGGDPS = molecular target: T5, MliGGDPS (Melampsora lini, UniProt A0A858E6N7); assay: radiochemical IDS assay, TLC; assay type: biochemical; conditions: MOPS pH 7.0, 10 mM MgCl2, 30 °C; co-substrate [1-14C]-IDP; product GGDP
T5 construct: gene GGDPS; full-length synthesized cDNA in pET-32a, N-terminal His-tag, E. coli BL21(DE3) pLysS
T5 sequence (A0A858E6N7 1-365): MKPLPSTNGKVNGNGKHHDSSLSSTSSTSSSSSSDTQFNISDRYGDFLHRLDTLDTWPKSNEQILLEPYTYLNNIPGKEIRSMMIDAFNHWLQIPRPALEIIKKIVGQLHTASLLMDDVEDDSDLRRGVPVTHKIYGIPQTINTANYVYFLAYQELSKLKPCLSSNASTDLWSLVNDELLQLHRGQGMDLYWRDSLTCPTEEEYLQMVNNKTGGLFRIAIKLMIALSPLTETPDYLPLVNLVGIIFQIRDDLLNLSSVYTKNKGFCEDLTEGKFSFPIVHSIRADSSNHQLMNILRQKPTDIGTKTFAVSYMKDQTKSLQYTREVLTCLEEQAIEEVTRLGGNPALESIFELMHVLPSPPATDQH

[1] = substrate: CC(C)=CCC/C(C)=C/CC/C(C)=C/CO[P@@](=O)(O)OP(=O)(O)O; assay: radiochemical terpene synthase assay, hexane extraction; assay type: biochemical, Melampsora lini; conditions: MOPSO pH 7.0, 10 mM MgCl2, 0.05 mM MnCl2, room temperature, labelled compound
Protocol: radiochemical terpene synthase assay, hexane extraction on MliILTPS2 | the apparent Km values of MliILTPS2 and MliILTPS3 using FDP as substrate were determined

[2] = substrate: CC(C)=CCC/C(C)=C/CC/C(C)=C/CO[P@@](=O)(O)OP(=O)(O)O; assay: as above; assay type: biochemical, Melampsora lini; conditions: MOPSO pH 7.0, 10 mM MgCl2, 0.05 mM MnCl2, room temperature, labelled compound; remark: listed apart in the source
Protocol: radiochemical terpene synthase assay, hexane extraction on MliILTPS3 | the apparent Km values of MliILTPS2 and MliILTPS3 using FDP as substrate were determined

CC(C)=CCC/C(C)=C/COP(=O)(O)OP(=O)(O)O [GDP]
in vitro terpene synthase assay, SPME GC-MS (MlpILTPS1; products (E)-beta-ocimene (major), linalool (minor)): When GDP was provided as a substrate, MlpILTPS1 produced (E)-β-ocimene as a major product
in vitro terpene synthase assay, SPME GC-MS (MliILTPS1; product linalool): both MliILTPS1 and MliILTPS3 converted GDP to linalool
in vitro terpene synthase assay, SPME GC-MS (MlpILTPS2; product linalool): In contrast, MlpILTPS2 produced only linalool

CC(C)=CCC/C(C)=C/CC/C(C)=C/COP(=O)(O)OP(=O)(O)O [FDP]
radiochemical IDS assay, TLC (MlpGGDPS): MlpGGDPS catalyzed the formation of GGDP using either DMADP, GDP, or FDP
radiochemical IDS assay, TLC (MliGGDPS): MliGGDPS was active with DMADP, GDP, and FDP to produce GGDP
in vitro terpene synthase assay, SPME GC-MS (MlpILTPS1; product (E,E)-alpha-farnesene): using FDP as substrate, MlpILTPS1 produced (E,E)-α-farnesene
in vitro terpene synthase assay, SPME GC-MS (MliILTPS1; product (E)-nerolidol): both MliILTPS1 and MliILTPS3 converted FDP to (E)-nerolidol
in vitro terpene synthase assay, SPME GC-MS (MlpILTPS2; product (E)-nerolidol): MlpILTPS2 catalyzed the formation of (E)-nerolidol

B1: MliILTPS2 (Melampsora lini) (protein)
chain: MSIYDDIFKQFPTIDEWSESNEKIMLEPYTHLGINTAKELPSMVTKAFNHWYQVPQPALDIILQIVGPIHAACLLIDDIQDDSDLRGGNPVAHKVYGVAQTINTATYVCFDAYHKISKLTPFSKSPETTDLWSIINDEIAALHRGQWIDLYWRDSLICPTEEEYLRMIHNKTGAIFRLPIKLLQALSPVDSPPDCFPLVNVVGILVQIRNDLLSLSPDFTKDKGFCEDFSEGKFSFPIIHSVKADSSNSLLIDILRLRPKDEPTKRKALRYMKDQTKSLDHTFDVLCKLEKTAKEELEKLGGNSELSSILELIQVSPIPEIADR
notes: full-length synthesized cDNA in pET-32a, N-terminal His-tag, E. coli BL21(DE3) pLysS
Km [1]: 1.9 ± 0.3 µM
kcat [1]: 0.01 ± 0.001 s⁻¹

B2: MliILTPS3 (Melampsora lini) (protein)
chain: MSIYDDIFKQFPMIDEWSDSDEKILVEPYTYLGINTAKELPSMVTKAFNHWYQVPQPALDIILQIIGPIHAASLLLDDIQDDSDLRGGNPVAHKVYGVAQTINTATYVCFDAYHKVSQLTPFLKSPETTDLWSIINDEIAALHRGQGIELYWRDSLMCPTEEEYLRMIHNKTGAIFRLPIKLLQALSSVDSPPDCFPLLNIVGILFQIQNDISSLSPDFTKDKGFCEDFSEGKFSFPIIHSVKADSSNSLLMDILRLRPKDEATKRKALRFMKDQTKSLDHTFHVLCKLKKTAQEELEKLGGNSELSSILERIQVSPTPEIEDR
notes: as for B1
Km [2]: 1.6 ± 0.2 µM
kcat [2]: 0.05 ± 0.004 s⁻¹
